According to ChEMBL document CHEMBL1201862, “PubChem BioAssay data set” (2004):
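These data come from cells grown in 96-well plates and exposed to compound for 48 hours at five concentrations. GI50 = concentration required for 50% inhibition of growth.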 Calls of active or inactive are those of the source. Cut-off read from the data, not from the text of the source: active = GI50 up to about 1.1 µM and inactive = higher.

Legend:
Test in all cases: growth of human tumour cells (NCI), 48 h
[1] = tested on: OVCAR-4
[2] = tested on: SR
[3] = tested on: SNB-78
[4] = tested on: M19-MEL
[5] = tested on: OVCAR-5
[6] = tested on: RXF 393
[7] = tested on: UO-31
[8] = tested on: DMS-273
[9] = tested on: HCT-15
[10] = tested on: 786-0
[11] = tested on: TK-10
[12] = tested on: SK-MEL-5
[13] = tested on: NCI-H460
[14] = tested on: NCI-H23
[15] = tested on: KM12
[16] = tested on: SK-OV-3
[17] = tested on: KM-20L2
[18] = tested on: CAKI-1
[19] = tested on: SF-539
[20] = tested on: A549
[21] = tested on: XF498
[22] = tested on: DMS-114
[23] = tested on: NCI-H522
[24] = tested on: MOLT-4
[25] = tested on: SK-MEL-28
[26] = tested on: HL-60
[27] = tested on: HCT-116
[28] = tested on: EKVX
[29] = tested on: SF-268
[30] = tested on: K562
[31] = tested on: NCI-H226
[32] = tested on: ACHN
[33] = tested on: LOX IMVI
[34] = tested on: SF-295
[35] = tested on: HOP-92
[36] = tested on: RPMI-8226
[37] = tested on: IGROV-1
[38] = tested on: A498
[39] = tested on: U-251
[40] = tested on: HCC 2998
[41] = tested on: LXFL 529
[42] = tested on: SN12C
[43] = tested on: OVCAR-8
[44] = tested on: M14
[45] = tested on: SK-MEL-2
[46] = tested on: SNB-75
[47] = tested on: HT-29
[48] = tested on: UACC-257
[49] = tested on: CCRF-CEM
[50] = tested on: COLO 205
[51] = tested on: SW-620
[52] = tested on: UACC-62
[53] = tested on: SNB-19
[54] = tested on: HOP-18
[55] = tested on: HOP-62
[56] = tested on: Malme-3M
[57] = tested on: OVCAR-3

`Cc1ccc(N2C(=O)/C(=C3\Sc4c(nc(C)n(C)c4=O)N3c3ccccc3)SC2=S)cc1` was tested, and the GI50 [1] was 76.9 µM (inactive), the GI50 [2] was > 100 µM (inactive) and the GI50 [3] was 40.8 µM (inactive). The GI50 [4] was > 100 µM (inactive), the GI50 [5] was > 100 µM (inactive) and the GI50 [6] was 18.7 µM (inactive). The GI50 [7] was > 100 µM (inactive), the GI50 [8] was 25.2 µM (inactive) and the GI50 [9] was > 100 µM. The GI50 [10] was 36.9 µM (inactive), the GI50 [11] was 32.8 µM (inactive) and the GI50 [12] was 83.8 µM (inactive). For the same molecule, the GI50 [13] was 19.1 µM (inactive), the GI50 [14] was > 100 µM (inactive) and the GI50 [15] was > 100 µM (inactive). For the same molecule, the GI50 [16] was 54.8 µM (inactive), the GI50 [17] was > 100 µM (inactive) and the GI50 [18] was 41.3 µM (inactive). The GI50 [19] was 15.3 µM (inactive), the GI50 [20] was 49.2 µM (inactive) and the GI50 [21] was > 100 µM (inactive). The GI50 [22] was 35.6 µM (inactive), the GI50 [23] was > 100 µM (inactive) and the GI50 [24] was > 100 µM (inactive). For the same molecule, the GI50 [25] was 41.1 µM (inactive), the GI50 [26] was > 100 µM (inactive) and the GI50 [27] was 64.7 µM (inactive). For the same molecule, the GI50 [28] was > 100 µM (inactive), the GI50 [29] was 34.6 µM (inactive) and the GI50 [30] was > 100 µM (inactive). For the same molecule, the GI50 [31] was 26 µM (inactive), the GI50 [32] was > 100 µM (inactive) and the GI50 [33] was > 100 µM (inactive). For the same molecule, the GI50 [34] was 52.7 µM (inactive), the GI50 [35] was 33.8 µM (inactive) and the GI50 [36] was > 100 µM (inactive). The GI50 [37] was 48 µM (inactive), the GI50 [38] was 30.1 µM (inactive) and the GI50 [39] was 42.7 µM (inactive). The GI50 [40] was > 100 µM (inactive), the GI50 [41] was 68.7 µM (inactive) and the GI50 [42] was 43.4 µM (inactive). For the same molecule, the GI50 [43] was 27.9 µM (inactive), the GI50 [44] was > 100 µM (inactive) and the GI50 [45] was > 100 µM (inactive). The GI50 [46] was 28.6 µM (inactive), the GI50 [47] was > 100 µM (inactive) and the GI50 [48] was > 100 µM (inactive). For the same molecule, the GI50 [49] was > 100 µM (inactive), the GI50 [50] was > 100 µM (inactive) and the GI50 [51] was > 100 µM (inactive). The GI50 [52] was 45.7 µM (inactive) and the GI50 [53] was 49.4 µM (inactive).
For `COC(=O)C(=O)C(CC(=O)Nc1cc(Cl)ccc1Cl)C(=O)OC` (stereo not drawn), the GI50 [1] was > 100 µM (inactive), the GI50 [2] was > 100 µM (inactive) and the GI50 [3] was > 100 µM (inactive). For the same molecule, the GI50 [5] was > 100 µM (inactive), the GI50 [6] was > 100 µM (inactive) and the GI50 [7] was > 100 µM (inactive). For the same molecule, the GI50 [8] was > 100 µM (inactive), the GI50 [9] was > 100 µM and the GI50 [54] was > 100 µM (inactive). For the same molecule, the GI50 [10] was > 100 µM (inactive), the GI50 [11] was > 100 µM (inactive) and the GI50 [55] was > 100 µM (inactive). The GI50 [12] was > 100 µM (inactive), the GI50 [13] was > 100 µM (inactive) and the GI50 [14] was > 100 µM (inactive). The GI50 [15] was > 100 µM (inactive), the GI50 [16] was > 100 µM (inactive) and the GI50 [17] was > 100 µM (inactive). For the same molecule, the GI50 [18] was > 100 µM (inactive), the GI50 [19] was > 100 µM (inactive) and the GI50 [20] was > 100 µM (inactive). The GI50 [22] was > 100 µM (inactive), the GI50 [23] was > 100 µM (inactive) and the GI50 [24] was > 100 µM (inactive). For the same molecule, the GI50 [25] was > 100 µM (inactive), the GI50 [26] was > 100 µM (inactive) and the GI50 [27] was > 100 µM (inactive). For the same molecule, the GI50 [28] was > 100 µM (inactive), the GI50 [29] was > 100 µM (inactive) and the GI50 [30] was > 100 µM (inactive). For the same molecule, the GI50 [31] was > 100 µM (inactive), the GI50 [32] was > 100 µM (inactive) and the GI50 [33] was > 100 µM (inactive). The GI50 [34] was > 100 µM (inactive), the GI50 [35] was > 100 µM (inactive) and the GI50 [36] was > 100 µM (inactive). For the same molecule, the GI50 [37] was > 100 µM (inactive), the GI50 [38] was > 100 µM (inactive) and the GI50 [39] was > 100 µM (inactive). The GI50 [40] was > 100 µM (inactive), the GI50 [41] was > 100 µM (inactive) and the GI50 [56] was > 100 µM (inactive). For the same molecule, the GI50 [42] was > 100 µM (inactive), the GI50 [43] was > 100 µM (inactive) and the GI50 [44] was > 100 µM (inactive). For the same molecule, the GI50 [45] was > 100 µM (inactive), the GI50 [46] was > 100 µM (inactive) and the GI50 [47] was > 100 µM (inactive). The GI50 [48] was > 100 µM (inactive), the GI50 [49] was > 100 µM (inactive) and the GI50 [57] was > 100 µM (inactive). For the same molecule, the GI50 [50] was > 100 µM (inactive), the GI50 [51] was > 100 µM (inactive) and the GI50 [52] was > 100 µM (inactive). The GI50 [53] was > 100 µM (inactive).
